Source: patent EP1180991B1, “GAMBOGIC ACID DERIVATIVES AS ACTIVATORS OF CASPASES AND INDUCERS OF APOPTOSIS” (Cytovia, Inc., priority 1999, dated 2000)

Legend:
T47D cells = test: Morphological change of cells, phase contrast (Example 93); assay type: cell-based, human; conditions: 2.5 µM
Protocol: In addition, apoptotic adherent cells in culture lose their ability to remain attached to the culture dish. The ability of gambogic acid to trigger these morphological changes in T47D cells was investigated.
60 mm culture dishes were seeded with 750,000. T47D cells and the cultures were incubated under normal growth conditions (complete medium with 10% FBS) for 24 h. The cells were then treated with 2.5 µM of gambogic acid and further incubated under normal growth conditions for 2 or 6 h. Morphological changes were documented by photographing the cells under phase contrast illumination.

KB = conditions: Lin et al. 1993; cited from earlier work
Jurkat cells = test: PARP cleavage, western blot (Example 98); assay type: cell-based, human; conditions: 2.5 µM, 2 h (Fig. 5A)
Protocol: (§1) Cleavage of the enzyme poly(ADP)ribose polymerase (PARP) by caspase-3 and related proteases is considered to be one of the molecular hallmarks of caspase-mediated apoptosis. Therefore, the ability of gambogic acid to induce PARP cleavage in four different human tumor cell lines (Jurkat cells, HL-60 cells, T47D cells and PC3 cells) was determined.
(§2) Cells were cultured in complete growth medium containing 10% FBS and treated with gambogic acid at concentrations of 2.5 µM or 5 µM for 2 to 4 h. Control cultures were treated with a drug vehicle (DMSO), or the well-characterized apoptosis inducer, staurosporine. At the end of the apoptosis induction period, the cells were harvested, washed once with PBS, quick-frozen on dry ice, and stored at -80° C. The cells were then lysed in a standard immunoblotting lysis buffer and samples of the lysates were electrophoresed on 4% to 20% gradient polyacrylamide gels. The proteins in the gels were then transferred to PVDF membranes and probed with a commercially-available rabbit polyclonal antibody to PARP.

HL-60 cells = test: PARP cleavage, western blot (Example 98); assay type: cell-based, human; conditions: 2.5 µM, 2 h (Fig. 5B)
Protocol: as §1, §2

PC-3 [1] = test: Caspase cascade activation assay (Example 90); assay type: cell-based, human; conditions: PC-3, 24 h incubation
Protocol: (§3) Human breast cancer cell lines T-47D and ZR-75-1, human prostate cancer cell line PC-3, human leukemia cancer cell line HL-60 and human non-transformed fibroblast cell line MRC-5 cells were grown according to media component mixtures designated by The American Type Culture Collection + 10% FCS (Life Technologies, Inc.), in a 5% CO2 -95% humidity incubator at 37° C. T-47D, ZR-75-1 and PC-3 cells were maintained at a cell density between 30 and 80% confluency and for HL-60 at a cell density of 0.1 to 0.6 x 10^6 cells/ml. Cells were harvested at 600xg and resuspended at 0.65 x 10^6 cells/ml into appropriate media + 10% FCS. […] The samples were mixed by agitation and incubated at room temperature.
(§4) The EC50 (nM) was determined by a sigmoidal dose-response calculation (Prism 2.0, GraphPad Software Inc.). Caspase Activity and Potency

MRC-5 = test: Caspase cascade activation assay (Example 90); assay type: cell-based, human; conditions: MRC-5 non-transformed fibroblasts, 24 h incubation
Protocol: as §3, §4

ZR-75-1 [2] = test: Caspase cascade activation assay (Example 90); assay type: cell-based, human; conditions: ZR-75-1, 24 h incubation
Protocol: as §3, §4

T-47D [3] = test: Caspase cascade activation assay (Example 90); assay type: cell-based, human; conditions: T-47D, 24 h incubation
Protocol: as §3, §4

HL-60 [4] = test: Caspase cascade activation assay (Example 90); assay type: cell-based, human; conditions: HL-60, 24 h incubation
Protocol: as §3, §4

PC-3 [5] = test: Inhibition of cell proliferation (GI50) and cell death (LC50), CellTiter 96 (Example 91); assay type: cell-based; conditions: Homo sapiens, PC-3, 48 h
Protocol: (§5) T-47D, ZR-75-1, PC-3, human prostate cancer cell line DU-145, human non-small cell lung cancer cell line A-549, human small cell lung cancer cell line SHP-77, HL-60 and MRC-5 cells were grown and harvested as in Example 90. […] The samples were mixed by agitation and incubated at 37° C for 2-4 h in a 5% CO2-95% humidity incubator. […] This determines the possible background absorbance of the test compounds. No absorbance for gambogic acid or its analogs or derivatives was found at 490 nm. After the 2-4 h incubation, the samples were read for absorbance as above (ATest).
(§6) The samples were mixed by agitation and incubated at 37° C for 2-4 h in a 5% CO2-95% humidity incubator. Absorbance was read as above, (AT=0) defining absorbance for initial cell number used as baseline in GI50 determinations and (Amin) defining absorbance for media alone used as baseline in LC50 determinations.
(§7) GI50 (dose for50%inhibition of cell proliferation) 50 = 100 x [(ATest-AT = 0)/(Amax-AT = 0)] [formula] LC50 (dose for50%cell death) 50 = 100 x [(ATest-Amin)/(AT = 0-Amin)] [formula]

A-549 = test: as above; assay type: cell-based; conditions: Homo sapiens, A549, A-549, 48 h
Protocol: as §5, §6, §7

ZR-75-1 [6] = test: as above; assay type: cell-based; conditions: Homo sapiens, ZR-75-1, 48 h
Protocol: as §5, §6, §7

T-47D [7] = test: as above; assay type: cell-based; conditions: Homo sapiens, T47D, T-47D, 48 h
Protocol: as §5, §6, §7

DU-145 = test: as above; assay type: cell-based; conditions: Homo sapiens, DU-145, 48 h
Protocol: as §5, §6, §7

HL-60 [8] = test: as above; assay type: cell-based; conditions: Homo sapiens, HL-60, 48 h
Protocol: as §5, §6, §7

SHP-77 = test: as above; assay type: cell-based; conditions: Homo sapiens, SHP77, SHP-77, 48 h
Protocol: as §5, §6, §7

[9] = Homo sapiens, caspase activation, read-out: EC50
[10] = 0.16 to 10 µM final, net RFU ratio to control
[11] = dose for 50% cell death, read-out: LC50 (the source's name)
[12] = dose for 50% inhibition of cell proliferation, read-out: GI50

CC(C)=CCC[C@]1(C)C=Cc2c(O)c3c(c(CC=C(C)C)c2O1)O[C@]12C(=C[C@@H]4C[C@H]1C(C)(C)O[C@@]2(C/C=C(/C)C(=O)O)C4=O)C3=O [Example 1, Gambogic Acid]
apoptotic morphological changes (T47D cells; 2 h (Fig. 1B)): many of the cells have taken on a rounded, phase-bright morphology
apoptotic morphological changes (T47D cells; 6 h (Fig. 1C)): most of the cells in the culture are rounded up and are beginning to detach from the dish
cytotoxicity (KB): cytotoxic
PARP cleavage (Jurkat cells): almost complete PARP cleavage
PARP cleavage (HL-60 cells): almost complete PARP cleavage
EC50 (PC-3 [1]; [9]): 1500 nM
caspase activity (Ratio) (PC-3 [1]; [10]): 2.1
EC50 (MRC-5; Homo sapiens, MRC5, caspase activation, read-out: EC50): 1410 nM
caspase activity (Ratio) (MRC-5; [10]): 17.8
EC50 (ZR-75-1 [2]; [9]): 1400 nM
caspase activity (Ratio) (ZR-75-1 [2]; [10]): 11.9
EC50 (T-47D [3]; Homo sapiens, T47D, caspase activation, read-out: EC50): 560 nM
caspase activity (Ratio) (T-47D [3]; [10]): 13.6
caspase activity (Ratio) (HL-60 [4]; [10]): 6.3
EC50 (HL-60 [4]; [9]): 400 nM
CC50 (PC-3 [5]; [11]): 700 nM
GI50 (PC-3 [5]; [12]): 500 nM
CC50 (A-549; [11]): 5000 nM
GI50 (A-549; [12]): 800 nM
CC50 (ZR-75-1 [6]; [11]): 500 nM
GI50 (ZR-75-1 [6]; [12]): 400 nM
CC50 (T-47D [7]; [11]): 450 nM
GI50 (T-47D [7]; [12]): 65 nM
CC50 (DU-145; [11]): 800 nM
GI50 (DU-145; [12]): 500 nM
CC50 (HL-60 [8]; [11]): 700 nM
GI50 (HL-60 [8]; [12]): 500 nM
CC50 (SHP-77; [11]): 500 nM
GI50 (SHP-77; [12]): 500 nM
